For one series, the system named is Shigella. Briefly: MIC vs clinical isolates, Shigella. The class given is cell-based. To be noted: Shigella strain ND024108. As to the method:
(§1) Determination of MIC. MICs were determined in MHB by the broth microdilution methodology, according to CLSI procedure (formerly NCCLS, Ref. 11) by using final bacterial inocula of 1-5×10^5 CFU/mL. Assays were performed in sterile 96-well microtiter plates with round bottom wells (Corning Costar). Plates were incubated at 37° C. and read after 20-24 h. MIC was defined as the lowest drug concentration causing complete suppression of visible bacterial growth. All compounds were dissolved in (5% v/v DMSO).
(§2) These compounds were tested against a large panel of Gram-negative clinical isolates and the relative MIC values were reported in Table 5 (parts 1-3)

The next series concerns E. coli ATCC 25922. Briefly: MIC by broth microdilution, E. coli reference strain. Format: cell-based, Escherichia coli. As to the method: as §1
All natural aminoacids have been divided into three groups based on their chemical-physical properties. A total amount of 27 minilibraries, each one containing six peptide in equimolar amounts, were obtained and assayed against E. coli ATCC 25922 as reference strain. MIC (Minimum Inhibitory Concentration) is defined as the lowest concentration inhibiting 100% of visible growth.

The subject of series [1] is Klebsiella pneumoniae ATCC 10031. Briefly: MIC by broth microdilution, K. pneumoniae reference strain. The class given is cell-based. On the procedure: as §1
(§3) These peptides were synthesized individually, in order to assay the activity of each sequence.
(In broth dilution the organism is exposed to a series of concentrations in liquid medium.)

The subject of another series is Acinetobacter baumannii. The class given is cell-based. On the procedure: as §1, §2
The test system of the next series is Pseudomonas aeruginosa. The class given is cell-based. On the procedure: as §1, §2
The test system of another series is Enterobacter cloacae. The class given is cell-based. On the procedure: as §1, §2
The test system of the next series is Acinetobacter iwoffi. The class given is cell-based. On the procedure: as §1, §2
For another series, the system named is Escherichia coli. The class given is cell-based. As to the method:
as §1, §2

The subject of another series is Klebsiella pneumoniae. Format: cell-based. As to the method:
as §1, §2

The next series has as its system Klebsiella oxytoca. Format: cell-based. As to the method:
as §1, §2

Series [2] has as its system Stenotrophomonas maltophilia. The class given is cell-based. On the procedure: as §1, §2
The next series concerns Serratia marcescens. The class given is cell-based. On the procedure: as §1, §2
The next series concerns Proteus mirabilis. Format: cell-based. On the procedure: as §1, §2
Series [3] deals with Pseudomonas aeruginosa ATCC 27853. In words: MIC by broth microdilution, P. aeruginosa reference strain. The class given is cell-based. On the procedure:
as §1, §3

The subject of series [4] is Staphylococcus aureus ATCC 25923. On the procedure: as §1, §3
The next series has as its system whole blood. Format: cell-based. As to the method: Whole blood was collected in a sterile tube with a 4% w/v sodium citrate solution (in a 1:10 ratio sodium citrate:whole blood) and conserved in ice. Serial dilutions of ID24 (1 mg/mL to 62.5 ug/mL) were added to whole blood in a ratio 1:1 or 1:10. The haemolytic potential was expressed relative to saponine, added in the same ratio, considered as 100% haemolysis. The negative control was whole blood in physiologic solution, which gave minimal lysis. 100 uL aliquots of each suspension were added in sterile 96-well microtiter plates (Nunc) in triplicate. The plates were incubated at 37° C. for 30 minutes.
Subsequently, the suspension were pelletted by centrifugation at 1000 g for 10 minutes at 4° C. One hundred microliters of supernatant from each well was transferred accordingly to a new 96-well microtiter plate, and the amount of haemoglobin released into the supernatant was determined by reading the absorbance at 560 nm.
In Table 8, haemolysis percentages of different amounts of ID24 in a 1:1 ratio with whole blood are listed, while in Table 9 haemolysis percentages of different amounts of ID24 in a 1:10 ratio with whole blood are reported. The amount of haemoglobin released into the supernatant was determined by reading the absorbance at 560 nm.

These results are taken from US8785399B2, “Antibacterial peptides” (Spiderbiotech S.R.A., priority 2008, dated 2014).

Usually MIC stands for the smallest concentration in the dilution series that meets the test's criterion for growth inhibition.

Values after ≈ are worked out from the molar mass of the structure shown. Positions of bridges follow the written chain, without caps; N, C: chain ends. Non-standard residues stand in square brackets, D forms with d. Residues, ends and D or L forms follow the SMILES beside them. Chains are numbered I, II in the order given. βAla = NCCC(=O)O

With `CC[C@H](C)[C@H](NC(=O)[C@H](CCCCN)NC(=O)[C@H](CCCCN)NC(=O)[C@@H](N)Cc1c[nH]c2ccccc12)C(=O)N[C@@H](CCCNC(=N)N)C(=O)N[C@H](C(=O)N[C@@H](CCCNC(=N)N)C(=O)N[C@@H](CC(C)C)C(=O)N[C@@H](CO)C(=O)N[C@@H](C)C(=O)NCCCC[C@H](NC(=O)[C@H](C)NC(=O)[C@H](CO)NC(=O)[C@H](CC(C)C)NC(=O)[C@H](CCCNC(=N)N)NC(=O)[C@@H](NC(=O)[C@H](CCCNC(=N)N)NC(=O)[C@@H](NC(=O)[C@H](CCCCN)NC(=O)[C@H](CCCCN)NC(=O)[C@@H](N)Cc1c[nH]c2ccccc12)[C@@H](C)CC)C(C)C)C(=O)NCCC(N)=O)C(C)C` [ID18, (H-W-KKIRVRLSA)2-Lys-β-Ala-NH2] (I: H-WKKIRVRLSAK[βAla]-NH2 / II: H-WKKIRVRLSA; amide I:11-II:C), the MIC in the series with Shigella was 4 µg/mL (≈ 1.49 µM); with Acinetobacter iwoffi, 16 µg/mL (≈ 5.94 µM); against Klebsiella oxytoca, 32 µg/mL (≈ 11.9 µM); in the series on Serratia marcescens, greater than 128 µg/mL; against Proteus mirabilis, greater than 128 µg/mL. Further, the “MIC (ug/mL) E. coli” value with E. coli ATCC 25922 (Table 4) turned out to be 4 µg/mL (≈ 1.49 µM). For the same compound, the “MIC (ug/mL) K. pneumoniae” value in [1] (Table 4) is 32 µg/mL (≈ 11.9 µM). The “MIC Range” value against Acinetobacter baumannii was 8 to 16 µg/mL; against Pseudomonas aeruginosa, 8 to 16 µg/mL; against Enterobacter cloacae, 4 to 32 µg/mL; against Escherichia coli it was 2 to 32 µg/mL; against Klebsiella pneumoniae it was 4 to 16 µg/mL; in the series on Klebsiella oxytoca, 32 µg/mL (≈ 11.9 µM). Also, the “MIC Range” value is 8 to 32 µg/mL in series [2] and greater than 128 µg/mL in the series with Proteus mirabilis. Moreover, in series [3] (Table 4), the “MIC (ug/mL) P. aeruginosa” value was 32 µg/mL (≈ 11.9 µM).
As for H-LKKIRVRLSA-OH [ID4, H-L-KKIRVRLSA-OH], the “MIC (ug/mL) S. aureus” value in series [4] was greater than 512 µg/mL. In addition, the “MIC (ug/mL) E. coli” value against E. coli ATCC 25922 (ATCC 25922) was 256 µg/mL. For the same compound, the “MIC (ug/mL) K. pneumoniae” value in [1] (ATCC 10031) amounted to 512 µg/mL. In addition, in [3] (ATCC 27853), the “MIC (ug/mL) P. aeruginosa” value was found to be 256 µg/mL.
As for saponine, in the series with whole blood, the Haemolysis % came out at 100% and the “Haemolysis, %” value turned out to be 100%.
In the case of “H-QIKIRVRLSA-OH [ID9, H-Q-I-KIRVRLSA-OH]”, in series [4], the “MIC (ug/mL) S. aureus” value is greater than 512 µg/mL. Further, the “MIC (ug/mL) E. coli” value with E. coli ATCC 25922 (ATCC 25922) was 512 µg/mL. Moreover, in series [1] (ATCC 10031), the “MIC (ug/mL) K. pneumoniae” value was determined as 512 µg/mL. Further, in series [3] (ATCC 27853), the “MIC (ug/mL) P. aeruginosa” value is greater than 512 µg/mL.
H-VKKIRVRLSA-OH [ID5, H-V-KKIRVRLSA-OH]: the “MIC (ug/mL) S. aureus” value in series [4] was 512 µg/mL. Besides, the “MIC (ug/mL) E. coli” value against E. coli ATCC 25922 (ATCC 25922) is 512 µg/mL. In addition, the “MIC (ug/mL) K. pneumoniae” value in series [1] (ATCC 10031) was greater than 512 µg/mL. In addition, the “MIC (ug/mL) P. aeruginosa” value in series [3] (ATCC 27853) worked out at 512 µg/mL.
Take H-FKKIRVRLSA-OH [ID2, H-F-KKIRVRLSA-OH]: the “MIC (ug/mL) S. aureus” value in [4] amounted to 512 µg/mL. Besides, the “MIC (ug/mL) E. coli” value in the series with E. coli ATCC 25922 (ATCC 25922) turned out to be 256 µg/mL. In addition, in series [1] (ATCC 10031), the “MIC (ug/mL) K. pneumoniae” value stood at 512 µg/mL. Moreover, the “MIC (ug/mL) P. aeruginosa” value in series [3] (ATCC 27853) turned out to be 256 µg/mL.
